Measured values from PubChem BioAssay AID2060359 (Molecular Pharmacology Branch, DTP, NCI, 2025).
Where “and” joins values, the source holds several entries; their conditions need not be identical. Equal values may be shown once.

Tested on: 276233-004-R-J1-PDC spheroids with HUVEC/MSC, viability
Assay: Anticancer human tumor 276233-004-R-J1-PDC patient-derived colon adenocarcinoma cell line growth inhibition [TAK]
Details: for viability, T/C: stronger effect = lower value
Source text: Combinatorial screen of targeted agents with TAK-243 and ipatasertib in multi-cell type tumor spheroids
A high-throughput screen of multi-cell type tumor spheroids was designed to identify active combinations of targeted small molecules and TAK-243 or ipatasertib. Complex spheroids include a stromal component modeled by human endothelial cells (HUVEC) and fibroblasts modeled by human mesenchymal stem cells (MSCs). The concentration ranges selected for each drug and investigational agent were based upon clinically achievable concentrations if the clinical Cmax of the agent was known.
Compounds. The drugs and investigational agents: TAK-243 (785004), ipatasertib (767898), everolimus (733504), selumetinib (741078), bortezomib (756655), trametinib (758246), ixazomib (758254), vemurafenib (761431), dabrafenib (764134), sapanisertib (764658), alpelisib (765974), and copanlisib (816437), were obtained from the National Cancer Institute (NCI) Developmental Therapeutics Program Chemical Repository. The FDA-approved anticancer drug set is available from the NCI Developmental Therapeutics Program. […] The stock solutions were prepared in dimethyl sulfoxide (DMSO, Sigma-Aldrich, St. Louis, MO, cat. D2650) at 800-fold the tested concentration and stored at -70 degrees C prior to their use. All drugs and investigational agents were tested over a range starting from a high concentration at or near the clinical Cmax and decreasing in half-log increments. If the clinical Cmax for an agent had not been determined, the highest concentration tested was 10 microM.
NCI60 Cell Culture. NCI60 cell lines were obtained from the NCI Developmental Therapeutics Program Tumor Repository. For each lot of cells, the Repository performed Applied Biosystems AmpFLSTR Identifiler testing with PCR amplification to confirm consistency with the published Identifier STR profile for each cell line. Cells were kept in continuous culture for no more than 20 passages. The optimal seeding densities for each of the cell lines at each time point assessed were determined prior to performing the concentration response studies. Briefly, the NCI60 human tumor lines were grown as monolayers in RPMI 1640 medium supplemented with 10% FBS and 2 mmol/L L-glutamine.
An additional 2 lines were from the NCI60 cell line panel including melanomas, MALME-3M and SK-MEL-2. Pooled donor human umbilical vein endothelial cells (HUVEC, Lonza, cat. CC-2519) and human mesenchymal stem cells (hMSC, Lonza, cat. PT-2501) were purchased from Lonza (Walkersville, MD).
PDMR cell lines were grown in complete medium (DC medium): Dulbecco's modified Eagle's medium (DMEM)/F12 supplemented with 5% fetal bovine serum (FBS), 2 mM L-glutamine, 100 U/mL penicillin and 100 µg/ml streptomycin, 0.4 µg/ml hydrocortisone, 10 ng/ml epidermal growth factor (EGF) recombinant human protein, 24 µg/mL adenine, and 0.1 mg/mL primocin. During culture from frozen stock vials, PDMR cells were cultured in the same medium containing 10 µM Y-27632 (see Table 3). The PDCs were cultured in complete DMEM/F12 media without 10 microM Y-27632 dihydrochloride for at least two passages prior to the screen. The pooled donor HUVEC and hMSC were cultured in endothelial cell growth medium 2 (PromoCell, Heidelberg, Germany, cat. C-22011) and mesenchymal stem cell growth medium 2 (PromoCell, cat. C-28009), respectively. For all experiments, HUVEC and hMSC were used at passages </=5.
For the pre-screen, cell seeding densities were determined from a titration spanning the range from 5,000 to 313 cells per well. The mct-spheroids including 60% malignant cells, 25% HUVEC and 15% MSC dispensed as a mixture into U-bottom Ultra-Low Attachment 384-well plates (Corning, NY)
High-throughput Drug Combination Screening.
Prior to their inoculation into 384-well plates, malignant cells, HUVEC, and hMSC were removed from T flasks using TrypLE express (Thermo Fisher Scientific, cat. 12605036) and harvested by centrifugation for 5 min at 233 x g. […]
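Further: spheroids exposed to drugs for seven days before the viability read.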

CC(=O)Nc1cccc(-n2c(=O)n(C3CC3)c(=O)c3c(Nc4ccc(I)cc4F)n(C)c(=O)c(C)c32)c1
viability, T/C (compound 94.9 pM): 92.8% and 120% | viability, T/C (compound 0.0003 µM): 81.6% and 81.1% | viability, T/C (compound 0.000949 µM): 88.4% and 73.1% | viability, T/C (compound 0.003 µM): 70.1% and 70% | viability, T/C (compound 0.00949 µM): 61.6% and 54.3% | viability, T/C (compound 0.03 µM): 37.1% and 44.9% | IC50 (curve of compound): 15.7 nM and 29.7 nM

CC(C)(C)c1nc(-c2cccc(NS(=O)(=O)c3c(F)cccc3F)c2F)c(-c2ccnc(N)n2)s1
viability, T/C (compound 0.0316 µM): 93.4% and 107% | viability, T/C (compound 0.1 µM): 86.3% and 116% | viability, T/C (compound 0.316 µM): 113% and 106% | viability, T/C (compound 1 µM): 86.4% and 100% | viability, T/C (compound 3.16 µM): 77.2% and 58.5% | viability, T/C (compound 10 µM): 84.5% and 86.9% | IC50 (curve of compound): > 10000 nM

CC(C)CC(NC(=O)C(Cc1ccccc1)NC(=O)c1cnccn1)B(O)O (configuration not stated)
viability, T/C (compound 31.6 pM): 107% and 98.8% | viability, T/C (compound 0.0001 µM): 88.1% and 105% | viability, T/C (compound 0.000316 µM): 97.6% and 93.5% | viability, T/C (compound 0.001 µM): 91.4% and 106% | viability, T/C (compound 0.00316 µM): 89.8% and 112% | viability, T/C (compound 0.01 µM): 12.6% and 10% | IC50 (curve of compound): 5.72 nM and 6.1 nM

CC(C)CC(NC(=O)CNC(=O)c1cc(Cl)ccc1Cl)B1OC(=O)CC(CC(=O)O)(C(=O)O)O1 (configuration not stated)
viability, T/C (compound 0.000316 µM): 99.7% and 101% | viability, T/C (compound 0.001 µM): 110% and 108% | viability, T/C (compound 0.00316 µM): 102% and 83.4% | viability, T/C (compound 0.01 µM): 103% and 92.3% | viability, T/C (compound 0.0316 µM): 91.4% and 105% | viability, T/C (compound 0.1 µM): 19.5% and 23.7% | IC50 (curve of compound): 61.4 nM and 66.5 nM

CC(C)NCC(C(=O)N1CCN(c2ncnc3c2C(C)CC3O)CC1)c1ccc(Cl)cc1 (configuration not stated)
viability, T/C (compound 0.949 µM): 84.7% [middle of 10 runs] | viability, T/C (compound 3 µM): 82.2% [middle of 10 runs] | IC50 (compound alone, run of 03/19/2020): > 30000 nM

CC(C)n1nc(-c2ccc3oc(N)nc3c2)c2c(N)ncnc21
viability, T/C (compound 0.000316 µM): 104% and 103% | viability, T/C (compound 0.001 µM): 116% and 96.9% | viability, T/C (compound 0.00316 µM): 90.4% and 95.4% | viability, T/C (compound 0.01 µM): 76.1% and 71.7% | viability, T/C (compound 0.0316 µM): 82.8% and 66.4% | viability, T/C (compound 0.1 µM): 62% and 57.5% | IC50 (curve of compound): > 100 nM

CCCS(=O)(=O)Nc1ccc(F)c(C(=O)c2c[nH]c3ncc(-c4ccc(Cl)cc4)cc23)c1F
viability, T/C (compound 0.316 µM): 81.8% and 103% | viability, T/C (compound 1 µM): 84.5% and 105% | viability, T/C (compound 3.16 µM): 114% and 104% | viability, T/C (compound 10 µM): 103% and 121% | viability, T/C (compound 31.6 µM): 103% and 89% | viability, T/C (compound 100 µM): 99% and 98.9% | IC50 (curve of compound): > 100000 nM

COC1CC2CCC(C)C(O)(O2)C(=O)C(=O)N2CCCCC2C(=O)OC(C(C)CC2CCC(OCCO)C(OC)C2)CC(=O)C(C)C=C(C)C(O)C(OC)C(=O)C(C)CC(C)C=CC=CC=C1C (configuration not stated)
viability, T/C (compound 0.000316 µM): 107% and 100% | viability, T/C (compound 0.001 µM): 94.7% and 93.2% | viability, T/C (compound 0.00316 µM): 83.6% and 81.6% | viability, T/C (compound 0.01 µM): 78.3% and 67.6% | viability, T/C (compound 0.0316 µM): 77.4% and 80.3% | viability, T/C (compound 0.1 µM): 66.3% and 64.1% | IC50 (curve of compound): > 100 nM

COc1c(OCCCN2CCOCC2)ccc2c3n(c(=NC(=O)c4cnc(N)nc4)nc12)CCN3
viability, T/C (compound 0.00316 µM): 82.5% and 97.5% | viability, T/C (compound 0.01 µM): 64.3% and 80.6% | viability, T/C (compound 0.0316 µM): 55.6% and 59.9% | viability, T/C (compound 0.1 µM): 50.8% and 57.9% | viability, T/C (compound 0.316 µM): 43.1% and 47.6% | viability, T/C (compound 1 µM): 47.2% and 63.4%

Cc1nc(NC(=O)N2CCCC2C(N)=O)sc1-c1ccnc(C(C)(C)C(F)(F)F)c1 (configuration not stated)
viability, T/C (compound 0.0316 µM): 100% and 88.8% | viability, T/C (compound 0.1 µM): 89.7% and 95.4% | viability, T/C (compound 0.316 µM): 80% and 70.7% | viability, T/C (compound 1 µM): 61.8% and 64.2% | viability, T/C (compound 3.16 µM): 64% and 56.8% | viability, T/C (compound 10 µM): 42.8% and 50.4% | IC50 (curve of compound): 6270 nM and > 10000 nM

Cn1cnc2c(F)c(Nc3ccc(Br)cc3Cl)c(C(=O)NOCCO)cc21
viability, T/C (compound 0.00949 µM): 83.5% and 81.4% | viability, T/C (compound 0.03 µM): 81.7% and 79.9% | viability, T/C (compound 0.0949 µM): 62.3% and 70.2% | viability, T/C (compound 0.3 µM): 70.4% and 70.3% | viability, T/C (compound 0.949 µM): 57% and 62.4% | viability, T/C (compound 3 µM): 45.9% and 44.9% | IC50 (curve of compound): 2100 nM and 2190 nM

COC1CC2CCC(C)C(O)(O2)C(=O)C(=O)N2CCCCC2C(=O)OC(C(C)CC2CCC(OCCO)C(OC)C2)CC(=O)C(C)C=C(C)C(O)C(OC)C(=O)C(C)CC(C)C=CC=CC=C1C (configuration not stated) + CC(C)NCC(C(=O)N1CCN(c2ncnc3c2C(C)CC3O)CC1)c1ccc(Cl)cc1
IC50 (curve of first compound, second compound 0.3 µM): > 100 nM | IC50 (curve of first compound, second compound 0.949 µM): > 100 nM | IC50 (curve of first compound, second compound 3 µM): > 100 nM | IC50 (curve of first compound, second compound 9.49 µM): > 100 nM | IC50 (curve of first compound, second compound 30 µM): > 100 nM | viability, T/C (second compound 0.3 µM, first compound 0.000316 µM): 126% | viability, T/C (second compound 0.3 µM, first compound 0.001 µM): 81.9% | viability, T/C (second compound 0.3 µM, first compound 0.00316 µM): 75.9% | viability, T/C (second compound 0.3 µM, first compound 0.01 µM): 79.3% | viability, T/C (second compound 0.3 µM, first compound 0.0316 µM): 67.5% | viability, T/C (second compound 0.3 µM, first compound 0.1 µM): 71.3% | viability, T/C (second compound 0.949 µM, first compound 0.000316 µM): 74.3% | viability, T/C (second compound 0.949 µM, first compound 0.001 µM): 93.3% | viability, T/C (second compound 0.949 µM, first compound 0.00316 µM): 81.9% | viability, T/C (second compound 0.949 µM, first compound 0.01 µM): 70.5% | viability, T/C (second compound 0.949 µM, first compound 0.0316 µM): 68.3% | viability, T/C (second compound 0.949 µM, first compound 0.1 µM): 58.4% | viability, T/C (second compound 3 µM, first compound 0.000316 µM): 72.3% | viability, T/C (second compound 3 µM, first compound 0.001 µM): 65.5% | viability, T/C (second compound 3 µM, first compound 0.00316 µM): 57.4% | viability, T/C (second compound 3 µM, first compound 0.01 µM): 68.2% | viability, T/C (second compound 3 µM, first compound 0.0316 µM): 54.9% | viability, T/C (second compound 3 µM, first compound 0.1 µM): 57.9% | viability, T/C (second compound 9.49 µM, first compound 0.000316 µM): 55.9% | viability, T/C (second compound 9.49 µM, first compound 0.001 µM): 57.3% | viability, T/C (second compound 9.49 µM, first compound 0.00316 µM): 49.1% | viability, T/C (second compound 9.49 µM, first compound 0.01 µM): 53.6% | viability, T/C (second compound 9.49 µM, first compound 0.0316 µM): 51.4% | viability, T/C (second compound 9.49 µM, first compound 0.1 µM): 54.1% | viability, T/C (second compound 30 µM, first compound 0.000316 µM): 53.8% | viability, T/C (second compound 30 µM, first compound 0.001 µM): 61% | viability, T/C (second compound 30 µM, first compound 0.00316 µM): 48.2% | viability, T/C (second compound 30 µM, first compound 0.01 µM): 54.2% | viability, T/C (second compound 30 µM, first compound 0.0316 µM): 59% | viability, T/C (second compound 30 µM, first compound 0.1 µM): 51.7%
